Measured values reported in patent US20210378591A1, “PROCESS FOR VISUAL DETERMINATION OF TISSUE BIOLOGY” (UNIVERSITY COLLEGE DUBLIN, NATIONAL UNIVERSITY OF IRELAND, …, priority 2018, published 2021).

Columns and labels:
[1] = cited from earlier work
[2] = cited from earlier work; remark: listed apart in the source
[3] = Dynamic visual analysis (DVA) of ICG NIR fluorescence intensity, rectal lesion versus healthy background tissue; settings: for initial uptake of ICG relative to background tissue: 0.25 mg per kg intravenously, initial phase; for washout of contrast agent: at 25 to 30 minutes

Q: With CC1(C)C(/C=C/C=C/C=C/C=C2\N(CCCCS(=O)(=O)O)c3ccc4ccccc4c3C2(C)C)=[N+](CCCCS(=O)(=O)[O-])c2ccc3ccccc3c21 [ICG, indocyanine green] as the molecule, how does the plasma protein binding ([1]; following intravenous injection) read?
A: rapidly bound to plasma proteins with minimal leakage into the interstitium

Q: What about the “time of excretion by the liver in bile after injection” value ([1]; intravenous injection) of the same molecule?
A: about 8 min

Q: And the water solubility [2]?
A: water-soluble but relatively hydrophobic

Q: What about the “initial uptake of ICG relative to background tissue” value ([3]; benign lesions) of the same molecule?
A: either synchronous with the background tissue or was ahead of the background tissue

Q: What about the “washout of contrast agent” value ([3]; benign lesions) of the same molecule?
A: most of the ICG tends to washout

Q: And the “initial uptake of ICG relative to background tissue” value ([3]; cancerous tissue)?
A: a definite lag in the initial uptake

Q: What about the “washout of contrast agent” value ([3]; cancerous tissue) of the same molecule?
A: retains it for longer
